Measurements: PMC11541474, “Toward New Therapeutics for Visceral Leishmaniasis: Efficacy and Mechanism of Action of Amides Inspired by Gibbilimbol B” (ACS Omega, 2024)

Assays:
[1] = in vitro mammalian toxicity against NCTC cells; format: cell-based; settings: 50% cytotoxic concentration, read-out: Cc50 Nctc (μm) ± SD
Method: Evaluation of in vitro mammalian toxicity against NCTC cells was performed as previously described.[40] The selectivity index was determined using the following equation: CC50 against NCTC cells/EC50 against amastigotes.[44] The CC50 and EC50 values were calculated using sigmoidal dose–response curves using Graph Pad Prism 5.0 software. One-way ANOVA testing with Tukey’s multiple comparison tests were used for evaluation of the statistical significance (p-value) of differences between the samples, which were tested in duplicate and all assays were repeated at least twice.

[2] = system: L. (L.) infantum promastigotes; assay: intracellular Ca2+ levels, Fura-2 AM; format: cell-based, Leishmania (L.) infantum; settings: 9 at 141.5 μM, 10 at 110.1 μM
Text: Compounds that affect intracellular Ca^2+ balance in Leishmania may cause changes in the mechanism of transport of these ions in trypanosomatids.[26] In Leishmania spp., Ca^2+ regulation involves the endoplasmic reticulum, the mitochondria, and the acidocalcisomes;[27],[28] increases in this intracellular ion can trigger processes such as apoptosis that led to the death of the parasite.[29] The Fura-2 AM marker was used to measure intracellular Ca^2+ levels in Leishmania (L.) infantum promastigotes. Fura-2 has a high affinity for Ca^2+, which results in the formation of fluorescent intracellular complexes that are proportional to intracellular Ca^2+ levels.[30] […] (Triton X-100) at all monitored times. […] Compound 10 induced similar levels of fluorescence to those induced by compound 9 but at a slower rate, as these levels were observed after 200 min of incubation.  Figure 7 Intracellular Ca^2+ levels in L. (L.) infantum treated with (A) compound 9 (141.5 μM) or (B) compound 10 (110.1 μM). Results were obtained using the Fluo-4 AM dye (excitation and emission at 485 and 535 nm, respectively). Untreated and treated with Triton X-100 (0.5% v/v) parasites were used as negative and positive controls, respectively. Fluorescence is represented as a percentage relative to the untreated control at 0 min (100%).***p < 0.0001. Measurements of intracellular Ca^2+ levels were conducted as previously reported.[49] Briefly, promastigotes were pretreated with Fura-2 AM (Molecular Probes) in PBS, washed and treated with compounds 9 (141.5 μM) or 10 (110.1 μM). Fluorescence was measured using a microplate reader (FilterMax […]-Mode, Molecular Devices) with excitation and emission at 360 and 500 nm, respectively. Untreated and treated parasites (0.5% Triton X-100) were used as negative and positive controls, respectively.

[3] = system: L. (L.) infantum promastigotes; assay: acidocalcisome alterations, acridine orange; format: cell-based, Leishmania (L.) infantum; settings: 9 at 141.5 μM (20 min), 10 at 110.1 μM (significant from 60 min onward)
Text: Acidocalcisomes are intracellular organelles that are characterized by acidity and high calcium concentrations due to the proton and calcium pumps.[33] In trypanosomatids, these organelles are rich in short-chain polyphosphates and occupy a small proportion (1 to 2%) of each cell’s volume.[34] In these parasites, the acidocalcisomes are responsible for capturing and storing calcium in large quantities, which is essential for cellular functioning.[35] In our study, we investigated possible changes resulting from treatment with compounds in acidocalcisomes, especially concerning intracellular calcium. Acridine orange was used as a fluorescent probe to evaluate changes in the acidocalcisomes of L. (L.) infantum promastigotes. Alkalinization of these organelles results in the release of the probe, altering the fluorescence.[36] […] These effects were compared with those of the positive (nigericin) and negative (untreated parasites) controls. Figure 8 Acidocalcisome alkalization in L. (L.) infantum treated with compounds 9 (141.5 μM - A) or 10 (110.1 μM - B). […] Fluorescence is represented as a percentage of the fluorescence in the positive control with nigericin at 20 min (100%). ***p = 0.003, **p = 0.0021, **p = 0.05. […] The fluorescence was measured in a spectrofluorimeter with excitation an emission at […], respectively. […]

[4] = system: L. (L.) infantum promastigotes; assay: parasite protein spectral profiling (MALDI-TOF/MS); format: cell-based, Leishmania (L.) infantum; settings: 9 at 141.5 μM, 10 at 110.1 μM, 24 h incubation
Method: Finally, the protein variations of Leishmania after treatment with compounds 9 and 10 were investigated using MALDI-TOF/MS analysis.[37],[38] […] Panel I. Promastigotes were incubated with compound 9 (141.5 μM), compound 10 (110.1 μM). Miltefosine was used as positive control whereas untreated parasites were used as a negative control. The peaks observed at m/z 6,153 and m/z 7,187 (blue) allow the identification of the Leishmania subgenus. Increases in peak intensity resulting from the incubation of promastigotes with compound 9 or 10 can be observed at m/z 3,081, 5,542, and 11,079 (red). Panel II. A schematic gel showing mass spectra in the m/z 2,000–20,000 range (B, D, F, H); raw spectra are shown in blue (A, C, E, G), whereas spectra generated after normalization, smoothing, and baseline subtraction are shown in red. (A) and (B), results from untreated promastigotes (negative control); (C) and (D); results from promastigotes incubated with compound 9; (E) and (F), results from promastigotes incubated with compound 10; and (G) and (H) results from promastigotes incubated with miltefosine (standard treatment drug and positive control). MALDI-TOF/MS was used to investigate protein changes in stationary-phase L. (L.) infantum promastigotes that were induced by treatment with compound 9 (141.5 μM), compound 10 (110.1 μM), or the standard drug miltefosine. […]

## CCCCC(CC)CNC(=O)c1ccc(Cl)cc1 (stereo not shown) [Compound 9, N-(2-Ethylhexyl)-4-chlorobenzamide]
[1]
  CC50: > 200 µM
[2]
  incubation time at which Ca^2+ levels approached those of the positive control (Triton X-100): ≤ 20 min
  intracellular Ca^2+ concentration compared with untreated parasites: increased the intracellular Ca^2+ concentration
[3]
  effect on acidocalcisomes (acridine orange fluorescence): alkalinization of the acidocalcisomes
[4]
  MALDI-TOF/MS protein spectral profile compared with untreated parasites: increased the intensity of the spectral peaks

## CCCCC(CC)CNC(=O)c1ccc([N+](=O)[O-])cc1 (stereo not shown) [Compound 10, N-(2-Ethylhexyl)-4-nitrobenzamide]
[1]
  CC50: > 200 µM
[2]
  incubation time at which Ca^2+ levels approached those of the positive control (Triton X-100): 200 min
  intracellular Ca^2+ concentration compared with untreated parasites: increased the intracellular Ca^2+ concentration
[3]
  effect on acidocalcisomes (acridine orange fluorescence): progressive and continuous acidification of these organelles
[4]
  MALDI-TOF/MS protein spectral profile compared with untreated parasites: increased the intensity of the spectral peaks
